Six compounds from patent publication US8404893B2, “Pentafluorosulfanylbenzoylguanidines, processes for their preparation, their use as medicaments or diagnostic aids, and medicaments comprising them” (Sanofi-Aventis Deutschland GmbH, priority 2002, dated 2013) can be followed below.

For orientation: IC50 means the concentration needed to halve the response being measured.

The structures appear in SMILES notation. Counter-ions that a name gives are not always drawn.

T1 sequence (P19634 whole entry): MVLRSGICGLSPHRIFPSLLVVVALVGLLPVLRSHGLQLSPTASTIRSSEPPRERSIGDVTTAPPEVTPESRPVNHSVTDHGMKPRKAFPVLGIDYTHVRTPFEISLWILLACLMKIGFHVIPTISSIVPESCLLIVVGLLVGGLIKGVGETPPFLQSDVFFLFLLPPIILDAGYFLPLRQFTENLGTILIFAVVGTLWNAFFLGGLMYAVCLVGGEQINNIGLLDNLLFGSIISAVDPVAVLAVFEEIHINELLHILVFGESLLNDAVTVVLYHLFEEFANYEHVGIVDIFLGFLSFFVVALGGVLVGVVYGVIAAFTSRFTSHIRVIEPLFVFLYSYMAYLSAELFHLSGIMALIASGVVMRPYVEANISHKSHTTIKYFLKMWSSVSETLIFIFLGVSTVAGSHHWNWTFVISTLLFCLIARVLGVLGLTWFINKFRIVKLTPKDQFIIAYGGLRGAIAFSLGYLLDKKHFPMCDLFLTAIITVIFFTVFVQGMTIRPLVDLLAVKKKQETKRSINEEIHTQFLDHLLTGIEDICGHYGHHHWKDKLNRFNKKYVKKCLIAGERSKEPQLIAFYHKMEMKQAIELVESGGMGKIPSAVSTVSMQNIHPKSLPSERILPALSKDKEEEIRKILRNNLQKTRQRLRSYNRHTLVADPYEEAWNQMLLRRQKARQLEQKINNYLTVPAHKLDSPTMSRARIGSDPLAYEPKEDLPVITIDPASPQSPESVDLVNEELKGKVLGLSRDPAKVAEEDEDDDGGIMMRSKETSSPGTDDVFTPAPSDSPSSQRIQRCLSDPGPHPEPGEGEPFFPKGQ

The experiment has as its target T1, human NHE-1 (Homo sapiens, UniProt P19634).
T1 construct: expressed in transfected cells; host or cells: LAP-1 cells (parental line without endogenous NHE activity), stably transfected, G418 selection
Nature of the experiment: FLIPR assay for NHE-1 inhibition by measurement of the recovery in pHi in transfected cell lines. Type of experiment: cell-based. The note with it: transfected LAP-1 cell line expressing human NHE-1, BCECF fluorescence, read-out: NHE1 inhibition IC50. On the procedure:
The NHE-1 inhibition IC50 [nM] was determined as follows:
FLIPR assay for determining NHE-1 inhibitors by measurement of the recovery in pHi in transfected cell lines which express human NHE-1
The assay is carried out in an FLIPR (fluorometric imaging plate reader) with black-walled 96-well microtiter plates with clear bases. […] [The growth medium for the transfected cells (Iscove+10% fetal calf serum) additionally contains G418 as selection antibiotic in order to ensure the presence of the transfected sequences.]
The actual assay starts with the removal of the growth medium and addition of 100 μl of loading buffer per well (5 μM BCECF-AM [2′,7′-bis(carboxyethyl)-5-(and -6-)carboxyfluorescein, acetoxymethyl ester] in 20 mM NH4Cl, 115 mM choline chloride, 1 mM MgCl2, 1 mM CaCl2, 5 mM KCl, 20 mM HEPES, 5 mM glucose; pH 7.4 [adjusted with KOH]). The cells are then incubated at 37° C. for 20 minutes. This incubation leads to loading of the cells with the fluorescent dye whose fluorescence intensity depends on pHi, and with NH4Cl which makes the cells slightly alkaline.
[The nonfluorescent dye precursor BCECF-AM is, as ester, membrane-permeable. The actual dye BCECF is not membrane-permeable but is liberated inside cells by esterases.]
After this incubation for 20 minutes, the loading buffer which contains NH4Cl and free BCECF-AM is removed by washing three times in a cell washer (Tecan Columbus) with in each case 400 μl of washing buffer (133.8 mM choline chloride, 4.7 mM KCl, 1.25 mM MgCl2, 1.25 mM CaCl2, 0.97 mM K2HPO4, 0.23 mM KH2PO4, 5 mM HEPES, 5 mM glucose; pH 7.4 [adjusted with KOH]). The residual volume remaining in the wells is 90 μl (50-125 μl possible). This washing step removes the free BCECF-AM and results, as a consequence of the removal of the external NH4^+ ions, in intracellular acidification (˜pHi 6.3-6.4).
Since the equilibrium of intracellular NH4^+ with NH3 and H^+ is disturbed by the removal of the extracellular NH4^+ and by the subsequent instantaneous passage of the NH3 through the cell membrane, the washing process results in H^+ remaining inside the cells, which is the cause of the intracellular acidification. This may eventually lead to cell death if it persists long enough.
It is important at this point that the washing buffer is sodium-free (<1 mM) because extracellular sodium ions would lead to an instantaneous recovery of the pHi through the activity of the cloned NHE isoforms.
It is likewise important for all the buffers used (loading buffer, washing buffer, recovery buffer) not to contain any HCO3^− ions, because the presence of bicarbonate would lead to activation of interfering bicarbonate-dependent pHi regulatory systems present in the parental LAP-1 cell line.
The microtiter plates with the acidified cells are then (up to 20 minutes after the acidification) transferred to the FLIPR. In the FLIPR, the intracellular fluorescent dye is excited by light with a wavelength of 488 nm generated by an argon laser, and the measured parameters (laser power, illumination time and aperture of the CCD camera incorporated in the FLIPR) are chosen so that the average fluorescence signal per well is between 30 000 and 35 000 relative fluorescence units.
The actual measurement in the FLIPR starts with a photograph being taken by the CCD camera every two seconds under software control. After ten seconds, the recovery of the intracellular pH is initiated by adding 90 μl of recovery buffer (133.8 mM NaCl, 4.7 mM KCl, 1.25 mM MgCl2, 1.25 mM CaCl2, 0.97 mM K2HPO4, 0.23 mM KH2PO4, 10 mM HEPES, 5 mM glucose; pH 7.4 [adjusted with NaOH]) by means of the 96-well pipettor incorporated in the FLIPR.
Positive control wells (100% NHE activity) are those to which pure recovery buffer is added, while negative controls (0% NHE activity) receive washing buffer. Recovery buffer with twice the concentration of test substance is added to all the other wells. Measurement in the FLIPR terminates after 60 measurements (two minutes). […]
Regarding `NC(N)=NC(=O)c1cccc(S(F)(F)(F)(F)F)c1` [Example 1, 3-Pentafluorosulfanylbenzoylguanidine, Hydrochloride], the concentration for half-maximal inhibition (IC50) came out at 237 nM.
With `NC(N)=NC(=O)c1ccc(S(F)(F)(F)(F)F)cc1` [Example 2, 4-Pentafluorosulfanylbenzoylguanidine, Hydrochloride], the concentration for half-maximal inhibition (IC50) came out at 131 nM.
For `Cc1cc(S(F)(F)(F)(F)F)ccc1C(=O)N=C(N)N` [Example 3, 4-Pentafluorosulfanyl-2-methylbenzoylguanidine], the concentration for half-maximal inhibition (IC50) stood at 14.5 nM.
As to `N=C(N)NC(=O)c1ccc(S(F)(F)(F)(F)F)cc1Cl` [Example 4, N-[2-Chloro-4-pentafluorosulfanylbenzoyl]guanidine], the IC50 was found to be 220 nM.
On to `N=C(N)NC(=O)c1ccc(S(F)(F)(F)(F)F)cc1Oc1ccc(F)cc1` [Example 5, N-[2-(4-Fluorophenoxy)-4-pentafluorosulfanylbenzoyl]guanidine], for which the IC50 came out at 12000 nM.
Take `Cc1ccc(S(F)(F)(F)(F)F)cc1C(=O)N=C(N)N` [Example 6, N-(2-Methyl-5-pentafluorosulfanylbenzoyl)guanidine]: the IC50 worked out at 20.3 nM.
